# Data from US20230201275A1 (priority 2020, published 2023).
# “Also recorded” adds a separate entry of the source. Where two headings read alike, the source gives them in different places.
# How the values were obtained:
# [1] = target: HilD mutant K293A (Salmonella typhimurium, UniProt P0CL08, K293A); format: cell-based; conditions: 20 μM
# [2] = target: wild type HilD (Salmonella typhimurium, UniProt P0CL08); format: cell-based; conditions: 20 μM, wild type HilD strain
# [3] = test system: hilA; format: cell-based, Salmonella Typhimurium
# [4] = target: HilD mutant K294A (Salmonella typhimurium, UniProt P0CL08, K294A); format: cell-based; conditions: 20 μM
# Chain of HilD mutant K294A (P0CL08 whole entry K294A, looked up): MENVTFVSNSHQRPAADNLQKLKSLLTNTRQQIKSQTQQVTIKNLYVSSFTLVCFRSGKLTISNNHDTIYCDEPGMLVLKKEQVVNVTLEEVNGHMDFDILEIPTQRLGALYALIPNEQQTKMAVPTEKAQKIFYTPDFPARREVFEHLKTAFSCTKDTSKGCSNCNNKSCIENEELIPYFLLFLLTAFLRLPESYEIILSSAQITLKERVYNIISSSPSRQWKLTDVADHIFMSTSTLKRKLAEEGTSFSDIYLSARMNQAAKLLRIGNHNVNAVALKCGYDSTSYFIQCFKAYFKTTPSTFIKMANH
# [5] = target: T1, HilD (Salmonella typhimurium, UniProt P0CL08); format: cell-based; conditions: lon mutant
# T1 sequence (P0CL08 whole entry): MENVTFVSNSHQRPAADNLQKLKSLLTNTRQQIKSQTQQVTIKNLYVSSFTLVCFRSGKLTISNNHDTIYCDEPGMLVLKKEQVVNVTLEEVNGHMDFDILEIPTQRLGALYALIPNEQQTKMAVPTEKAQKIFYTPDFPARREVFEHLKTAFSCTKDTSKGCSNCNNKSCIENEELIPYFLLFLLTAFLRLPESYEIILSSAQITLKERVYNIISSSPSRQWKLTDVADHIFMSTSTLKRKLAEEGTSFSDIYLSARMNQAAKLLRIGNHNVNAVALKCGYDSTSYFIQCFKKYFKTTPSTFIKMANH
# [6] = test system: RtsA; format: binding, Salmonella
# [7] = test system: Salmonella SPI1 expression (sicA-GFP); format: in vivo, mice
# [8] = target: HilC (Salmonella typhimurium, UniProt P0CL09); format: binding
# Chain of HilC (P0CL09 whole entry): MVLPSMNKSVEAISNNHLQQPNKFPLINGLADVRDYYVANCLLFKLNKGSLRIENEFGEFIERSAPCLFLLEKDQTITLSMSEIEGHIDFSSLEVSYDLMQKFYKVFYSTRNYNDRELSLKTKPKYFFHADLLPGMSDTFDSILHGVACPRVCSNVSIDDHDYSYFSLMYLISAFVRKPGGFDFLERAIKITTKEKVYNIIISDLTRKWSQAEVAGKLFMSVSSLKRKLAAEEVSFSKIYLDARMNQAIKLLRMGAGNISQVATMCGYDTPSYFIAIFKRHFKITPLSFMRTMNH
# [9] = test system: hilA; format: cell-based, Salmonella; conditions: absence of lon, 20 μM
# [10] = target: T1, HilD; format: binding
# Chain of HilD mutant K293A (P0CL08 whole entry K293A, looked up): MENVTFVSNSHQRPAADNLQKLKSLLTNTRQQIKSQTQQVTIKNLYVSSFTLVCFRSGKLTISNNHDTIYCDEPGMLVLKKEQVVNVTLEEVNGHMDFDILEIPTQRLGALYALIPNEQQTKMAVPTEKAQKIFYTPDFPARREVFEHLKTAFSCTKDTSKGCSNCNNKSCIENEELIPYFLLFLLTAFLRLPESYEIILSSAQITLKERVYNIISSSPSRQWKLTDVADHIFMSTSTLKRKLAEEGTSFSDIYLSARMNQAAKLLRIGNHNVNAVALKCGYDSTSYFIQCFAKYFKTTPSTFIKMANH
# Chain of wild type HilD (P0CL08 whole entry): as the sequence (P0CL08 whole entry) above
Compound,reduction of sipB expression [1],reduction of sipB expression [2],hilA (invasion gene) expression [3],reduction of sipB expression [4],effect on HilD stability [5],binding of RtsA to hilA promoter [6],"percentage of Salmonella expressing SPI in the gut ([7]; mice n=5/group, P<0.01 vs control)","reduction of percentage of bacteria expressing an invasion gene in the caecum ([7]; mice, 1.5 mM in drinking water, hilD UTR A25G strain)",binding of HilC to hilA promoter ([8]; 100 μM),"binding of HilC to hilA promoter ([8]; 100 μM, listed as cis-2-hexadecenoic acid)","binding of HilC to hilA promoter ([8]; 10, 25, 50 and 75 μM)","binding of HilC to hilA promoter ([8]; 10, 25, 50 and 75 μM, listed as cis-2-hexadecenoic acid)",hilA expression [9],"binding of HilD to hilA promoter ([10]; 20 μM, 10 nM DNA, 150 μM protein)","binding of HilD to hilA promoter ([10]; 20 μM, 10 nM DNA, 150 μM protein, listed as cis-2-hexadecenoic acid)","binding of HilD to hilA promoter ([10]; 1, 2, 5 and 10 μM)","binding of HilD to hilA promoter ([10]; 1, 2, 5 and 10 μM, listed as cis-2-hexadecenoic acid)"
"CCCCCCCCC/C=C\C(=O)O [2-cis-dodecenoic acid, (Z)-dodec-2-enoic acid]",no significant reduction,4.1 fold,reduced expression to a lesser degree,no significant reduction,,,,,,,,,,,,,
"CCCCCCCCCCCCC/C=C\C(=O)O [2-cis-hexadecenoic acid, (Z)-hexadec-2-enoic acid]",No significant repression,~11 fold,reduced expression to a lesser degree,No significant repression,no effect,preventing binding; also recorded: partially inhibited binding; also recorded: prevented binding; also recorded: did so partially,reduces the percentage,2 fold,preventing binding,prevented binding,partially inhibited binding,did so partially,continued to repress,prevented the binding,completely inhibited from binding,partially inhibited binding,did so partially
"CCCCCCCCCCCCC/C=C/C(=O)O [2-trans-hexadecenoic acid, reference compound]",4.7 fold,5.2 fold,,4.5 fold,,,,,,,,,,,,,
